Measured values: US12528774B2, “Thiosemicarbazone compounds and uses thereof” (The Regents of the University of California, priority 2019, dated 2026)
Where “and” joins values, the source holds several entries; their conditions need not be identical. Equal entries are not always repeated. Where two headings read alike, the source gives them in different places.

How the values were obtained:
143 BTK ρ0 cells = assay: Viability (trypan blue) and cell cycle in 143 BTK ρ0 cells; assay type: cell-based; conditions: HCT13 + 20 μM Cu(II), 48 hours
Procedure: FIG. 3A: Mito Stress Test of MIAPACA2 PDAC cells treated with HCT13 (25 nM)+Cu(II) (20 μM) for 24h. FIG. 3B: electron flow assay in isolated mitochondria treated with HCT-13 (100 nM)+Cu(II) (20 μM) for 1h. FIG. 3C: viability of 143 BTK parental (wild type, WT) and ρ0 cells after 48h of the indicated HCT13 concentration+Cu(II) (20 μM) treatment, assessed with Trypan Blue Staining. FIG. 3D: 48h cell cycle histogram and plots of S-phase arrest plots in 143 BTK WT and 143 BTK ρ0 cells at 24, 48 and 72h following treatment with indicated concentrations of HCT13+Cu(II)(20 μM). (mean±SD, n=2, one-way ANOVA corrected for multiple comparisons by Bonferroni adjustment, * P<0.05; ** P<0.01; *** P<0.001).
Another HCT compound, Dp44mT, was reported to increase AMPK expression and induce ROS, although its cytotoxicity was not attributed to the functionality of the mitochondria. (Ref 50). […] Both 143 BTK ρ0 and parental (wild type, WT) cells were treated with HCT13+20 μM Cu(II) for 48 hours, after which cell viability was determined through trypan blue staining (FIG. 3C).
Viability/Apoptosis assay: Viable cells were measured by Trypan blue staining using vi-cell counter (Beckman Coulter, CA, USA). […]
Cell cycle: Cell cycle was assessed using Propidium iodide staining at indicated timepoints. […]

MIAPACA2 cells = assay: Proliferation assay (CellTiter-Glo, 72 h) in MIAPACA2 cells; assay type: cell-based, human; conditions: for IC90: Homo sapiens, MIA PaCa-2, 72 h, MIAPACA2, 72 h
Procedure: IC90 values against MIAPACA2 cells was first determined in normal cell culture conditions (DMEM media and 10% FBS). Compounds were separated into three series (4′ primary amines, 4′ secondary amines, 4′ tertiary amines) to reflect the relative degrees of 4′ amine methylation. […] (Refs 41, 42).
HCT compounds are known to be copper chelators. (Ref. 32). To test whether the compounds described herein were similarly potentiated, the IC90 (+Cu IC90) values were determined against MIAPACA2 cells in media supplemented with physiologically relevant levels of copper (DMEM media+10% FBS+20 μM CuCl2). MIAPACA2 cells were treated with the indicated HCT±20 μM Cu(II) for 72 hours, then cell viability was measured with CellTiter-Glo to determine IC90 values.
(§1) Proliferation assay: Cells were plated in 384-well plates (500 cells/well for adherent cell lines in 30 μl volume). Drugs were serially diluted to the desired concentrations and an equivalent volume of DMSO was added to vehicle control. Following 72 h incubation, ATP content was measured using CellTiter-Glo reagent according to manufacturer's instructions (Promega, CellTiter-Glo Luminescent Cell Viability Assay), and analyzed by SpectraMax luminometer (Molecular Devices). IC50 and IC90 values, concentrations required to inhibit proliferation by 50% and 90% respectively compared to DMSO treated cells, were calculated using Prism 6.0 h (Graphpad Software).
as §1, with “assay.” for “assay:”, “Software). The 430-member protein kinase inhibitor library used for the chemical genomics screen was purchased from Selleckchem, Catalog No. L1200.” for “Software).”

## CN(C)C(=S)N/N=C/c1nccc2cc(F)ccc12 (mixture of isomers) [HCT13, (E)-2-((6-Fluoroisoquinolin-1-yl)methylene)-N,N-dimethylhydrazine-1-carbothioamide and (Z)-2-((6-Fluoroisoquinolin-1-yl)methylene)-N,N-dimethylhydrazine-1-carbothioamide]
143 BTK ρ0 cells
  sensitivity of ρ0 cells compared to WT (viability): significantly less sensitive
MIAPACA2 cells; 20 μM CuCl2
  increase in potency under copper supplementation versus non-copper-supplemented IC90: greater than 5 fold
MIAPACA2 cells; 72 h, Cu(II) 20 μM
  antiproliferative potency with Cu(II) supplementation: highest
MIAPACA2 cells; DMEM + 10% FBS + 20 μM CuCl2, read-out: +Cu(II) IC90
  IC90: 21.6 nM
MIAPACA2 cells; DMEM + 10% FBS, no copper supplementation, read-out: IC90
  IC90: 110 nM
MIAPACA2 cells; IC90 without copper
  potency relative to non-methylated analog HCT3: ~50 fold
MIAPACA2 cells; IC90 without copper, analog of same 4′ amine series (HCT1, HCT6 or HCT11)
  potency relative to non-fluorinated analog: ~250 fold and ~270 fold
